Among the test systems are K-562 leukemia; SR leukemia; HOP-92 NSCLC; ACHN renal; NCI-H522 lung; NCI/ADR-RES ovarian; MALME-3M melanoma; CCRF-CEM leukemia; T-47D breast; MDA-MB-231 breast.
Assay in all cases: growth of human tumour cells (NCI), 48 h

Drawing on PubChem BioAssay (NCI), this text covers TGI and GI50 for 14 molecules.

SMILES strings stand for the structures.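 The compound was tested at five concentrations on cells cultured in 96-well plates, with a 48-hour exposure period. Abbreviation: GI50, concentration required for 50% inhibition of growth. At the TGI there is no net growth.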

For the molecule `CC(C)(C)CC(C)(C)NC(=S)NO`, the TGI with K-562 leukemia, with SR leukemia, with HOP-92 NSCLC, in the experiment with ACHN renal, with NCI-H522 lung and in the experiment on NCI/ADR-RES ovarian was greater than 100 µM throughout. In addition, the TGI in the experiment with MALME-3M melanoma, in the experiment on CCRF-CEM leukemia, with T-47D breast and in the experiment on MDA-MB-231 breast was greater than 100 µM in each case.

On to `CC(C)=CCOc1cc(NC(=S)c2ccsc2C)ccc1Cl`, for which the TGI in the experiment on K-562 leukemia is greater than 100 µM; in the experiment on SR leukemia, 84.4 µM; with HOP-92 NSCLC, 37.1 µM; with ACHN renal, greater than 100 µM; in the experiment with NCI-H522 lung, greater than 100 µM; with NCI/ADR-RES ovarian it was greater than 100 µM. The TGI was greater than 100 µM in the experiment on MALME-3M melanoma, greater than 100 µM in the experiment with CCRF-CEM leukemia, greater than 100 µM in the experiment on T-47D breast and 83.4 µM in the experiment with MDA-MB-231 breast.

For `Cc1ccc(NC2=NCCO2)c2c1CCC2`, the TGI was greater than 100 µM with K-562 leukemia; 53.3 µM in the experiment with SR leukemia; 70 µM in the experiment with HOP-92 NSCLC; greater than 100 µM in the experiment with ACHN renal; greater than 100 µM in the experiment on NCI-H522 lung; 50 µM with NCI/ADR-RES ovarian. The TGI was 92.4 µM in the experiment on MALME-3M melanoma, greater than 100 µM with CCRF-CEM leukemia, greater than 100 µM in the experiment with T-47D breast and 69.4 µM in the experiment on MDA-MB-231 breast.

Take `Cc1ccc(-n2cc(-c3ccc(Cl)cc3)c3c(NN)ncnc32)cc1`: the TGI in the experiment on K-562 leukemia came out at 12 µM; in the experiment with SR leukemia, 9.28 µM; with HOP-92 NSCLC, 9.04 µM; with ACHN renal, 14.3 µM; in the experiment on NCI-H522 lung, 15.8 µM; in the experiment with NCI/ADR-RES ovarian, 15.3 µM. Besides, the TGI with MALME-3M melanoma is 21.5 µM; in the experiment on CCRF-CEM leukemia, 2.52 µM; in the experiment with T-47D breast, 26.6 µM; in the experiment on MDA-MB-231 breast it was greater than 100 µM.

As for `COc1ccc(C(Cc2ccccc2)C2NC(=S)NC2=O)cc1` (stereo not given), the TGI with K-562 leukemia, in the experiment on SR leukemia, in the experiment with HOP-92 NSCLC, in the experiment with ACHN renal, in the experiment with NCI-H522 lung and with NCI/ADR-RES ovarian was greater than 25 µM each time. Further, the TGI in the experiment on MALME-3M melanoma, in the experiment with CCRF-CEM leukemia, in the experiment with T-47D breast and in the experiment with MDA-MB-231 breast was greater than 25 µM throughout.

With `O=S(=O)(O)c1cccc2cccc(N=Nc3c(O)ccc4ccccc34)c12`, the TGI in the experiment on K-562 leukemia, with SR leukemia, with HOP-92 NSCLC, in the experiment on ACHN renal, in the experiment with NCI-H522 lung and in the experiment on NCI/ADR-RES ovarian was greater than 100 µM each time. The TGI in the experiment with MALME-3M melanoma, in the experiment on CCRF-CEM leukemia, with T-47D breast and in the experiment on MDA-MB-231 breast was greater than 100 µM each time.

With `COC(=O)c1c(CC(Cc2ccc3c(c2)CCCC3)C(=O)OC)ccc2c1CCCC2` (stereo not given), the TGI in the experiment on K-562 leukemia is greater than 100 µM; in the experiment on SR leukemia, 86.7 µM; with HOP-92 NSCLC, greater than 100 µM; in the experiment on ACHN renal it was greater than 100 µM; in the experiment on NCI-H522 lung, greater than 100 µM; in the experiment on NCI/ADR-RES ovarian, greater than 100 µM. Further, the TGI with MALME-3M melanoma, with CCRF-CEM leukemia, in the experiment on T-47D breast and in the experiment with MDA-MB-231 breast was greater than 100 µM each time.

As to `COc1ccc(/C=C/C(=O)c2ccc(-n3cc(CN4CCN(c5cc6c(cc5F)c(=O)c(C(=O)O)cn6C5CC5)CC4)nn3)cc2)cc1OC`, the GI50 is 0.977 µM in the experiment on K-562 leukemia; 0.434 µM in the experiment with SR leukemia; 11.7 µM with HOP-92 NSCLC; 3.5 µM in the experiment with ACHN renal; 4.25 µM with NCI-H522 lung; greater than 100 µM in the experiment on NCI/ADR-RES ovarian. Besides, the GI50 with MALME-3M melanoma is 2.59 µM; with CCRF-CEM leukemia it was 2.63 µM; in the experiment on T-47D breast, 3.16 µM; in the experiment on MDA-MB-231 breast, 3.2 µM. In addition, the TGI in the experiment on K-562 leukemia is greater than 100 µM; in the experiment with SR leukemia, greater than 100 µM; with HOP-92 NSCLC, 38.3 µM; in the experiment with ACHN renal, 45.2 µM; in the experiment with NCI-H522 lung, greater than 100 µM; in the experiment on NCI/ADR-RES ovarian, greater than 100 µM. Moreover, the TGI was 8.41 µM with MALME-3M melanoma, greater than 100 µM in the experiment with CCRF-CEM leukemia, greater than 100 µM with T-47D breast and greater than 100 µM in the experiment on MDA-MB-231 breast.

Regarding `Cc1ccc(S(=O)(=O)[C@@H](Cl)[C@H]2N=C(Cl)NN=C2c2ccccc2)cc1`, the TGI with K-562 leukemia was greater than 100 µM; with SR leukemia it was greater than 100 µM; in the experiment with HOP-92 NSCLC, 54.3 µM; in the experiment on ACHN renal, greater than 100 µM; with NCI-H522 lung, 35.9 µM; with NCI/ADR-RES ovarian, 50.8 µM. In addition, the TGI with MALME-3M melanoma was 41.7 µM; in the experiment with CCRF-CEM leukemia, 75 µM; in the experiment with T-47D breast, greater than 100 µM; in the experiment on MDA-MB-231 breast, 46.6 µM.

On to `COC(=O)c1c(C)cccc1C1CN=NC12Cc1ccc(C)c(C)c1C2=O` (stereo not given), for which the TGI in the experiment on K-562 leukemia was greater than 100 µM; in the experiment on SR leukemia, greater than 100 µM; in the experiment with HOP-92 NSCLC, greater than 100 µM; with ACHN renal it was greater than 100 µM; in the experiment on NCI-H522 lung, 75.4 µM; in the experiment on NCI/ADR-RES ovarian, greater than 100 µM. Moreover, the TGI in the experiment with MALME-3M melanoma is greater than 100 µM; in the experiment with CCRF-CEM leukemia, greater than 100 µM; in the experiment with T-47D breast, 13.1 µM; with MDA-MB-231 breast, greater than 100 µM.

For the molecule `O=CC(O)C(O)C(O)C1CNC(=S)O1` (stereo not given), the TGI with K-562 leukemia, in the experiment with SR leukemia, in the experiment on HOP-92 NSCLC, in the experiment on ACHN renal, with NCI-H522 lung and in the experiment with NCI/ADR-RES ovarian was greater than 100 µM in each case. The TGI in the experiment with MALME-3M melanoma, with CCRF-CEM leukemia, with T-47D breast and in the experiment on MDA-MB-231 breast was greater than 100 µM in each case.

As for `COc1ccccc1N=Nc1c(O)c(S(=O)(=O)O)cc2cc(S(=O)(=O)O)ccc12`, the TGI with K-562 leukemia, in the experiment on SR leukemia, with HOP-92 NSCLC, with ACHN renal, in the experiment on NCI-H522 lung and in the experiment with NCI/ADR-RES ovarian was greater than 100 µM throughout. Besides, the TGI in the experiment with MALME-3M melanoma, in the experiment on CCRF-CEM leukemia, in the experiment with T-47D breast and in the experiment with MDA-MB-231 breast was greater than 100 µM each time.

With `CC(=O)NC1=C(NCCCl)C(=O)c2ccccc2C1=O`, the TGI with K-562 leukemia is greater than 100 µM; in the experiment on SR leukemia, greater than 100 µM; with HOP-92 NSCLC it was greater than 100 µM; with ACHN renal, greater than 100 µM; with NCI-H522 lung, 59.3 µM; in the experiment with NCI/ADR-RES ovarian, 74 µM. Besides, the TGI with MALME-3M melanoma was 27.1 µM; in the experiment on CCRF-CEM leukemia, 66 µM; in the experiment with T-47D breast it was 84.1 µM; in the experiment on MDA-MB-231 breast, greater than 100 µM.

As for `Oc1ccccc1C1C=C(c2ccccc2)NC(N2CCCCC2)=C1c1nc2ccccc2[nH]1` (stereo not given), the TGI in the experiment with K-562 leukemia was greater than 100 µM; with SR leukemia, 35.3 µM; with HOP-92 NSCLC it was 26.9 µM; with ACHN renal it was 47.7 µM; in the experiment with NCI-H522 lung it was 27.7 µM; in the experiment with NCI/ADR-RES ovarian, 34 µM. In addition, the TGI with MALME-3M melanoma was 29.6 µM; in the experiment with CCRF-CEM leukemia, 47.7 µM; in the experiment on T-47D breast, 40.4 µM; in the experiment on MDA-MB-231 breast, 24.4 µM.
